Data: US6465686B2, “Halogenated 2-amino-5,6 heptenoic acid derivatives useful as nitric oxide synthase inhibitors” (Pharmacia Corporation, priority 2000, dated 2002)
Where a name gives a salt, the structure may show the parent alone.

Experiments:
[1] = target: T1, human endothelial constitutive NOS (hecNOS) (Homo sapiens, UniProt P29474); assay: Citrulline assay for nitric oxide synthase, hecNOS; format: biochemical; conditions: recombinant enzyme, conversion of L-[2,3-3H]-arginine to citrulline, 30 μM L-arginine, calmodulin included
T1 construct: made in house; host or cells: Sf9 insect cells (baculovirus vector)
Text: (§1) Citrulline Assay for Nitric Oxide Synthase
(§2) Nitric oxide synthase (NOS) activity can be measured by monitoring the conversion of L-[2,3-^3H]-arginine to L-[2,3-^3H]-citrulline (Bredt and Snyder, Proc. Natl. Acad. Sci. U.S.A., 87, 682-685, 1990 and Moore et al, J. Med. Chem., 39, 669-672, 1996). Human inducible NOS (hiNOS), human endothelial constitutive NOS (hecNOS) and human neuronal constitutive NOS (hncNOS) are each cloned from RNA extracted from human tissue. The cDNA for human inducible NOS (hiNOS) is isolated from a λcDNA library made from RNA extracted from a colon sample from a patient with ulcerative colitis. The cDNA for human endothelial constitutive NOS (hecNOS) is isolated from a λcDNA library made from RNA extracted from human umbilical vein endothelial cells (HUVEC) and the cDNA for human neuronal constitutive NOS (hncNOS) is isolated from a λcDNA library made from RNA extracted from human cerebellum obtained from a cadaver. The recombinant enzymes are expressed in Sf9 insect cells using a baculovirus vector (Rodi et al, in The Biology of Nitric Oxide, Pt. 4: Enzymology, Biochemistry and Immunology: Moncada, S., Feelisch, M., Busse, R., Higgs, E., Eds.; Portland Press Ltd.: London, 1995; pp 447-450). Enzyme activity is isolated from soluble cell extracts and partially purified by DEAE-Sepharose chromatography. To measure NOS activity, 10 μL of enzyme is added to 40 μL of 50 mM Tris (pH 7.6) in the presence or absence of test compounds and the reaction initiated by the addition of 50 μL of a reaction mixture containing 50 mM Tris (pH 7.6), 2.0 mg/mL bovine serum albumin, 2.0 mM DTT, 4.0 mM CaCl2, 20 μM FAD, 100 μM tetrahydrobiopterin, 0.4 mM NADPH and 60 μM L-arginine containing 0.9 μCi of L-[2,3-^3H]-arginine. The final concentration of L-arginine in the assay is 30 μM. For hecNOS or hncNOS, calmodulin is included at a final concentration of […]. Following incubation at 37° C. for 15 minutes, the reaction is terminated by addition of 400 μL of a suspension (1 part resin, 3 parts buffer) of Dowex 50W X-8 cation exchange resin in a stop buffer containing 10 mM EGTA, 100 mM HEPES, pH 5.5 and 1 mM L-citrulline. After mixing the resin is allowed to settle and L-[2,3-^3H]-Citrulline formation is determined by counting aliquots of the supernatant with a liquid scintillation counter. Results are reported in Table I as the IC50 values of compounds for hiNOS, hecNOS and hncNOS.

[2] = target: T2, human neuronal constitutive NOS (hncNOS) (Homo sapiens, UniProt P29475); assay: Citrulline assay for nitric oxide synthase, hncNOS; format: biochemical; conditions: recombinant enzyme, conversion of L-[2,3-3H]-arginine to citrulline, 30 μM L-arginine, calmodulin included
T2 construct: made in house; host or cells: Sf9 insect cells (baculovirus vector)
Text: as §1, §2

[3] = target: T3, Human inducible NOS (hiNOS) (Homo sapiens, UniProt P35228); assay: Citrulline assay for nitric oxide synthase, hiNOS; format: biochemical; conditions: recombinant enzyme, conversion of L-[2,3-3H]-arginine to citrulline, 30 μM L-arginine
T3 construct: made in house; host or cells: Sf9 insect cells (baculovirus vector)
Text: as §1, §2

Row | Structure (SMILES) | IC50 [1] [µM] | IC50 [2] [µM] | IC50 [3] [µM] | melting point [°C]
1 | CC(=N)NCC(F)=CCC[C@H](N)C(=O)O (mixture of isomers) [Example 2, (2S,5E/Z)-2-amino-6-fluoro-7-[(1-iminoethyl)amino]-5-heptenoic acid, dihydrochloride] | 195 | 21 | 2.2 | 
2 | CC(=N)NC/C(F)=C/CC[C@H](N)C(=O)O [Example 4, (2S,5Z)-2-amino-6-fluoro-7-[(1-iminoethyl)amino]-5-heptenoic acid, trihydrochloride, dihydrate] | 112 | 65 | 8.6 | 
3 | CC(=NO)NC/C(F)=C\CC[C@H](N)C(=O)O [Example 10, (2S,5E)-2-amino-6-fluoro-7-[(1-hydroximinoethyl)amino]-5-heptenoic acid] |  |  |  | 198 to 200

Continued, values first:

Row | IC50 [1] [µM] | IC50 [2] [µM] | IC50 [3] [µM] | melting point [°C] | Structure (SMILES)
4 | 68 | 3.6 | 0.36 |  | CC(=N)NC/C(F)=C\CC[C@H](N)C(=O)O [Example 1, (2S,5E)-2-amino-6-fluoro-7-[(1-iminoethyl)amino]-5-heptenoic acid, dihydrochloride, monohydrate]
5 | 303 | 105 | 12 |  | CC(=N)NC/C(F)=C/CC[C@H](N)C(=O)O [Example 3, (2S,5Z)-2-amino-6-fluoro-7-[(1-iminoethyl)amino]-5-heptenoic acid, dihydrochloride]
6 | 279 | 29 | < 5 |  | CC(=N)NC/C(F)=C\CC[C@@H](N)C(=O)O [Example 5, (2R,5E)-2-amino-6-fluoro-7-[(1-iminoethyl)amino]-5-heptenoic acid, dihydrochloride, monohydrate]
